Reference: PMC12051030, “Identification of inhibitors of the Salmonella FraB deglycase, a drug target” (FEBS Open Bio, 2025)

Experiments:
[1] = biological target: His6‐FraB (Salmonella FraB deglycase) (Salmonella enterica subsp. enterica serovar Typhimurium, UniProt Q8ZLD0); experiment: FraB-G6PD coupled assay, Michaelis–Menten analysis for K I and mode of inhibition; format: biochemical
Method: To determine the K I of each inhibitor, 29 μL of master mix was added to two rows of a 384‐well Greiner plate, using a single‐channel pipette, and incubated at 20 °C for 20 min. A 12‐channel pipette was then used to transfer and mix 1 μL of varying [6‐P‐F‐Asp] to all 48 wells. The final reaction (30 μL) consisted of 25 mM HEPES pH 8.0 at 20 °C, 5 mM MgCl2, 0.1 mM EGTA, 0.5 mM NAD^+, 1 mU G6PD, 100 nM His6‐FraB, varying (6‐P‐F‐Asp) (between 8 and 12 concentrations), and varying [inhibitor] (between three and five concentrations) in 10% (v/v) DMSO. NADH fluorescence was monitored every 10 s for 10 min total on a SPARK® multi‐mode multiplate reader (Tecan), as described above, and plotted against time. Slopes of the linear range of each curve were converted to initial velocities, as described above, that were then plotted against [6‐P‐F‐Asp]. A hyperbolic curve was then fitted to the data to obtain the k cat and K m values according to the formula: v o = (V max × [S])/(K m + [S]).
To determine the correlation between the observed and expected initial velocities (Fig. S5A), these values were exported from Kaleidagraph, plotted against one another, and a curve was fit using the formula: y = mx + b. The differences between observed and expected initial velocities (residuals) were then depicted as box‐and‐whisker plots (Fig. S5B). Lineweaver‐Burk plots were generated by graphing 1/v o versus 1/[S] and curves were fit to the data with Kaleidagraph using the formula: 1/v o = (Km/V max).(1/[S]) + (1/V max). The k cat and K m parameters were then converted into α′ values by dividing the k cat of the control (no inhibitor) by either itself (α′= 1) or the k cat of test samples with variable [inhibitor]. Those α′ values were plotted against [inhibitor] and K I values were determined from the equation α = 1 + [I]/K I.
The initial velocities used to generate the Michaelis–Menten plots were also employed to obtain the IC50 vs [S]/K m plots. For a given [S], initial velocities were converted into relative activities and plotted versus [inhibitor]. […] The IC50 values determined from the IC50 vs [S]/K m plots were then used to plot 1/IC50 versus v o/V max. A curve was fit to the data using the formula: y = mx + b. The Y‐intercept of the 1/IC50 versus v o/V max plot is equal to 1/K IC, and the slope, for mixed inhibitors, is equal to 1/K IU – 1/K IC. […] Data analyses were performed as described above (see Tables S1–S7 for curve‐fit errors and goodness‐of‐fit values).

FraB = FraB (Salmonella enterica subsp. enterica serovar Typhimurium, UniProt Q8ZLD0); experiment: Native MS of FraB–inhibitor complexes; format: binding
Method: For MS analysis, FraB was buffer exchanged into 200 mM ammonium acetate (AmAc) (Sigma‐Aldrich) or 66.7 mM ethylenediaminediacetic acid (EDDA) (Sigma‐Aldrich) using micro Bio‐spin P6 spin columns (Bio‐Rad); AmAc and EDDA concentrations were chosen to ensure the same ionic strength. The pH was adjusted to 7.5 by adding ammonium hydroxide solution (Sigma‐Aldrich). 6‐P‐F‐Asp was diluted with water, while three different inhibitors [3470:A09, 3469:F02, and 3469:N17, all purchased from either ChemDiv (San Diego, CA, USA) or Ambinter (Orléans, France)] were diluted in DMSO. The final concentration of DMSO used in the native MS experiments was 4.8% (v/v) or 1% (v/v) for the compounds obtained from ChemDiv or Ambinter, respectively.
For the characterization of FraB–inhibitor complexes, the protein was diluted into 200 mM AmAc and then mixed with inhibitors to final concentrations of 3 μM FraB and 120 μM inhibitor. After adding the inhibitors, the FraB–inhibitor complex was incubated for 20 min at 20 °C before injecting into the mass spectrometry (MS). For the characterization of FraB–inhibitor–substrate complexes, FraB was diluted into 66.7 mM EDDA, mixed with inhibitors, incubated at 20 °C for 20 min, and subsequently mixed with 6‐P‐F‐Asp. The final concentrations were as follows: 3 μM FraB (monomer concentration), 120 μM inhibitor, and 600 μM 6‐P‐F‐Asp.
Native MS experiments were performed on Thermo Q Exactive ultra high mass range (UHMR) Orbitrap. Samples were introduced into the MS instrument by nano‐electrospray ionization, which using glass capillary tips pulled in‐house using a P‐97 micropipette puller (Sutter Instruments, Novato, CA, USA). Each sample (3–5 μL) was loaded into the tips, and the electrospray voltage was set between 0.6 and 1.0 kV. The mass spectrometer was operated in positive mode using the following tuning settings: Capillary temperature: 200 °C detector optimization: low m/z; ion transfer target: high m/z; in‐source trapping (IST): 50 V, except when applying higher IST to disrupt the FraB–inhibitor interactions; HCD trap gas flow: 5; Resolution: 12 500. Mass spectra were collected after the spray stabilized (typically < 5 min) and then examined using XCalibur 4.1 (Thermo Scientific), and deconvolved using UniDec software.

FraB, sequence (Q8ZLD0 entry or part of it): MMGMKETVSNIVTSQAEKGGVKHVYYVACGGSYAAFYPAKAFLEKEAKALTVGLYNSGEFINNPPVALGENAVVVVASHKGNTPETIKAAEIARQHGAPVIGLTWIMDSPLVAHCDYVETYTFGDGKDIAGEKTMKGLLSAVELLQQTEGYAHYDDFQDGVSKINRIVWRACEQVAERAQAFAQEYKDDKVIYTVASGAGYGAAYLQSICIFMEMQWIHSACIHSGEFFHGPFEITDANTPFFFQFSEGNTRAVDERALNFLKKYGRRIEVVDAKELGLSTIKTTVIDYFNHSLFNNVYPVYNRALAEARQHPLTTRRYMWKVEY
His6‐FraB (Salmonella FraB deglycase), sequence (Q8ZLD0 entry or part of it): as above

Question: What does the source list for `Fc1ccc(-c2nn3c(-c4ccccn4)nnc3s2)cc1` [3469:N17, 6‐(4‐fluorophenyl)‐3‐pyridin‐2‐yl‐[1,2,4]triazolo[3,4‐b][1,3,4]thiadiazole]?
Answer: change of IC50 values with increasing [S]/K m ([1]; 'this trend' = IC50 does not vary with [S]/K m, change evident only from 0.2 to 1.6× [S]/K m): modest decrease; slope in plots of 1/IC50 vs. v o/V max ([1]; Fig. S12): weakly positive; IC50 ([1]; IC50 (IC50 versus [S]/Km plots), Trial 1, 6-P-F-Asp 7.38 µM, S/Km 0.175714, unit from Fig. S11 axis): 47.9 µM; IC50 ([1]; IC50 (IC50 versus [S]/Km plots), Trial 1, 6-P-F-Asp 15.7 µM, S/Km 0.37381, unit from Fig. S11 axis): 45.4 µM; IC50 ([1]; IC50 (IC50 versus [S]/Km plots), Trial 1, 6-P-F-Asp 31.3 µM, S/Km 0.745238, unit from Fig. S11 axis): 40.9 µM; IC50 ([1]; IC50 (IC50 versus [S]/Km plots), Trial 1, 6-P-F-Asp 62.5 µM, S/Km 1.488095, unit from Fig. S11 axis): 34.9 µM; IC50 ([1]; IC50 (IC50 versus [S]/Km plots), Trial 1, 6-P-F-Asp 125 µM, S/Km 2.97619, unit from Fig. S11 axis): 32.7 µM; IC50 ([1]; IC50 (IC50 versus [S]/Km plots), Trial 1, 6-P-F-Asp 250 µM, S/Km 5.952381, unit from Fig. S11 axis): 34.1 µM; IC50 ([1]; IC50 (IC50 versus [S]/Km plots), Trial 1, 6-P-F-Asp 500 µM, S/Km 11.90476, unit from Fig. S11 axis): 30.1 µM; IC50 ([1]; IC50 (IC50 versus [S]/Km plots), Trial 1, 6-P-F-Asp 750 µM, S/Km 17.85714, unit from Fig. S11 axis): 33.4 µM; IC50 ([1]; IC50 (IC50 versus [S]/Km plots), Trial 1, 6-P-F-Asp 1000 µM, S/Km 23.80952, unit from Fig. S11 axis): 32.7 µM; IC50 ([1]; IC50 (IC50 versus [S]/Km plots), Trial 1, 6-P-F-Asp 2000 µM, S/Km 47.61905, unit from Fig. S11 axis): 32.5 µM; IC50 ([1]; IC50 (IC50 versus [S]/Km plots), Trial 1, 6-P-F-Asp 3000 µM, S/Km 71.42857, unit from Fig. S11 axis): 39.3 µM; IC50 ([1]; IC50 (IC50 versus [S]/Km plots), Trial 2, 6-P-F-Asp 7.38 µM, S/Km 0.175714, unit from Fig. S11 axis): 36.6 µM; IC50 ([1]; IC50 (IC50 versus [S]/Km plots), Trial 2, 6-P-F-Asp 15.7 µM, S/Km 0.37381, unit from Fig. S11 axis): 44.8 µM; IC50 ([1]; IC50 (IC50 versus [S]/Km plots), Trial 2, 6-P-F-Asp 31.3 µM, S/Km 0.745238, unit from Fig. S11 axis): 48.2 µM; IC50 ([1]; IC50 (IC50 versus [S]/Km plots), Trial 2, 6-P-F-Asp 62.5 µM, S/Km 1.488095, unit from Fig. S11 axis): 48.5 µM; IC50 ([1]; IC50 (IC50 versus [S]/Km plots), Trial 2, 6-P-F-Asp 125 µM, S/Km 2.97619, unit from Fig. S11 axis): 37.7 µM; IC50 ([1]; IC50 (IC50 versus [S]/Km plots), Trial 2, 6-P-F-Asp 250 µM, S/Km 5.952381, unit from Fig. S11 axis): 34 µM; IC50 ([1]; IC50 (IC50 versus [S]/Km plots), Trial 2, 6-P-F-Asp 500 µM, S/Km 11.90476, unit from Fig. S11 axis): 32.9 µM; IC50 ([1]; IC50 (IC50 versus [S]/Km plots), Trial 2, 6-P-F-Asp 750 µM, S/Km 17.85714, unit from Fig. S11 axis): 35.9 µM; IC50 ([1]; IC50 (IC50 versus [S]/Km plots), Trial 2, 6-P-F-Asp 1000 µM, S/Km 23.80952, unit from Fig. S11 axis): 34.9 µM; IC50 ([1]; IC50 (IC50 versus [S]/Km plots), Trial 2, 6-P-F-Asp 2000 µM, S/Km 47.61905, unit from Fig. S11 axis): 39.2 µM; IC50 ([1]; IC50 (IC50 versus [S]/Km plots), Trial 2, 6-P-F-Asp 3000 µM, S/Km 71.42857, unit from Fig. S11 axis): 42.2 µM; IC50 ([1]; IC50, mean and standard deviation of all IC50 values in IC50 vs [S]/Km plot, trial shown in Fig. S11 panels M-X): 40 ± 6 µM; Ki ([1]; K I, from Michaelis–Menten analysis of FraB at different inhibitor concentrations, average and standard error from two measurements): 28.5 ± 3.5 µM; Ki ([1]; KI from α′ vs [I] plot, trial shown in Fig. S11 panels M-X): 25 µM; Ki ([1]; KI from α′ vs [I] plot, trial shown in Fig. S11 panels Y-AJ): 32 µM; K IU/K IC ratio ([1]; average (±SE), from 1/IC50 versus v o/V max plots): 0.7 ± 0.1; mode of inhibition ([1]; kinetic analyses (Lineweaver‐Burk, α′ vs [I], IC50 vs [S]/K m, 1/IC50 vs v o/V max)): mixed‐type uncompetitive; binding to FraB in the presence of substrate (native MS) (FraB; 3 μM FraB, 120 μM inhibitor, 600 μM 6‐P‐F‐Asp): can bind either free enzyme or the enzyme‐substrate complex; binding to FraB by native MS (species observed) (FraB; 3 μM FraB, 120 μM inhibitor, IST 50 V, E2I/E2I2 = FraB dimer bound to one or two inhibitor copies): distinct peaks corresponding to E2I and E2I2; type of FraB–inhibitor interaction (covalent vs noncovalent) (FraB; decrease in E2I and E2I2 with increasing IST voltage): noncovalent
